Experimental data: patent US20060253078A1, “Method of treating skin disorders with stratum corneum piercing device” (priority 2005, published 2006)

Experiment: In vitro electrode-salicylic acid compatibility (color change of test solution)
Type: physicochemical
Settings: for Solution color change: 1.5% salicylic acid in 50% ethanol/50% water, cathode Platinum
Description: The following experiment was conducted to determine the compatibility of electrodes with salicylic acid. A pair of test electrodes was immersed in 5 ml of 1.5% salicylic acid solution (solvent 50% ethanol/50% water). A pre-determined voltage was applied to the electrodes (by connecting the electrodes to a battery or batteries) for certain length of time as indicated in Table 3. Observations were made on color change of the test solution.

O=C(O)c1ccccc1O [salicylic acid]
Solution color change (anode Platinum, 3 V, 10 min): Colorless → yellow
Solution color change (anode Platinum, 9 V, 10 min): Colorless → brown
Solution color change (anode Zinc, 1.5 V, 10 min): No color change
Solution color change (anode Zinc, 3 V, 10 min): No color change
Solution color change (anode Zinc, 9 V, 30 min): No color change
Discoloration of the solution (compatibility with salicylic acid) (platinum anode): resulted in discoloration
Discoloration of the solution (compatibility with salicylic acid) (zinc anode, during passage of electric current): no discoloration
